The target in this test is human NaV subtype, like NaV 1.7 (Homo sapiens, UniProt Q15858). The experiment in a line: E-VIPR optical membrane potential assay with electrical stimulation. It counts as cell-based. Particulars: active against one or more sodium channels; assay and NaV subtype not specified for Table 3; read-out: IC50 Binned Activity Data. The source says:
Assays for Detecting and Measuring NaV Inhibition Properties of Compound E-VIPR Optical Membrane Potential Assay Method with Electrical Stimulation
Sodium channels are voltage-dependent proteins that can be activated by inducing membrane voltage changes by applying electric fields. The electrical stimulation instrument and methods of use are described in Ion Channel Assay Methods PCT/US01/21652, herein incorporated by reference and are referred to as E-VIPR. The instrument comprises a microtiter plate handler, an optical system for exciting the coumarin dye while simultaneously recording the coumarin and oxonol emissions, a waveform generator, a current- or voltage-controlled amplifier, and a device for inserting electrodes in well. Under integrated computer control, this instrument passes user-programmed electrical stimulus protocols to cells within the wells of the microtiter plate.
24 hours before the assay on E-VIPR, HEK cells expressing human NaV subtype, like NaV 1.7, are seeded in 384-well poly-lysine coated plates at 15,000-20,000 cells per well. Other subtypes are performed in an analogous mode in a cell line expressing the NaV of interest. HEK cells are grown in media (exact composition is specific to each cell type and NaV subtype) supplemented with 10% FBS (Fetal Bovine Serum, qualified; GibcoBRL #16140-071) and 1% Pen-Strep (Penicillin-Streptomycin; GibcoBRL #15140-122). Cells are grown in vented cap flasks, in 90% humidity and 10% CO2, to 100% confluence. They are usually split by trypsinization 1:10 or 1:20, depending on scheduling needs, and grown for 2-3 days before the next split.
100 mg/mL Pluronic F-127 (Sigma #P2443), in dry DMSO
Compound Plates: 384-well round bottom plate, e.g. Corning 384-well Polypropylene Round Bottom #3656
Cell Plates: 384-well tissue culture treated plate, e.g. Greiner #781091-1B
Bath1 buffer. Glucose 10 mM (1.8 g/L), Magnesium Chloride (Anhydrous), 1 mM (0.095 g/L), Calcium Chloride, 2 mM (0.222 g/L), HEPES 10 mM (2.38 g/L), Potassium Chloride, 4.5 mM (0.335 g/L), Sodium Chloride 160 mM (9.35 g/L).
Hexyl Dye Solution: Bath1 Buffer+0.5% β-cyclodextrin (make this prior to use, Sigma #C4767), 8 μM CC2-DMPE+2.5 μM DiSBAC6(3). To make the solution Add volume of 10% Pluronic F127 stock equal to volumes of CC2-DMPE+DiSBAC6(3). The order of preparation is first mix Pluronic and CC2-DMPE, then add DiSBAC6(3) while vortexing, then add Bath1+β-Cyclodextrin.
1) Pre-spot compounds (in neat DMSO) into compound plates. Vehicle control (neat DMSO), the positive control (20 mM DMSO stock tetracaine, 125 μM final in assay) and test compounds are added to each well at 160× desired final concentration in neat DMSO. Final compound plate volume will be 80 μL (80-fold intermediate dilution from 1 μL DMSO spot; 160-fold final dilution after transfer to cell plate). Final DMSO concentration for all wells in assay is 0.625%.
2) Prepare Hexyl Dye Solution.
3) Prepare cell plates. On the day of the assay, medium is aspirated and cells are washed three times with 100 μL of Bath1 Solution, maintaining 25 μL residual volume in each well.
4) Dispense 25 μL per well of Hexyl Dye Solution into cell plates. Incubate for 20-35 minutes at room temp or ambient conditions.
5) Dispense 80 μL per well of Bath1 into compound plates. Acid Yellow-17 (1 mM) is added and Potassium Chloride can be altered from 4.5 to 20 mM depending on the NaV subtype and assay sensitivity.
6) Wash cell plates three times with 100 μL per well of Bath1, leaving 25 μL of residual volume. Then transfer 25 uL per well from Compound Plates to Cell Plates. Incubate for 20-35 minutes at room temp/ambient condition
7) Read Plate on E-VIPR. Use the current-controlled amplifier to deliver stimulation wave pulses for typically 9 seconds and a scan rate of 400 Hz. A pre-stimulus recording is performed for 0.5 seconds to obtain the un-stimulated intensities baseline. […]
Sequence of human NaV subtype, like NaV 1.7 (Q15858 whole entry): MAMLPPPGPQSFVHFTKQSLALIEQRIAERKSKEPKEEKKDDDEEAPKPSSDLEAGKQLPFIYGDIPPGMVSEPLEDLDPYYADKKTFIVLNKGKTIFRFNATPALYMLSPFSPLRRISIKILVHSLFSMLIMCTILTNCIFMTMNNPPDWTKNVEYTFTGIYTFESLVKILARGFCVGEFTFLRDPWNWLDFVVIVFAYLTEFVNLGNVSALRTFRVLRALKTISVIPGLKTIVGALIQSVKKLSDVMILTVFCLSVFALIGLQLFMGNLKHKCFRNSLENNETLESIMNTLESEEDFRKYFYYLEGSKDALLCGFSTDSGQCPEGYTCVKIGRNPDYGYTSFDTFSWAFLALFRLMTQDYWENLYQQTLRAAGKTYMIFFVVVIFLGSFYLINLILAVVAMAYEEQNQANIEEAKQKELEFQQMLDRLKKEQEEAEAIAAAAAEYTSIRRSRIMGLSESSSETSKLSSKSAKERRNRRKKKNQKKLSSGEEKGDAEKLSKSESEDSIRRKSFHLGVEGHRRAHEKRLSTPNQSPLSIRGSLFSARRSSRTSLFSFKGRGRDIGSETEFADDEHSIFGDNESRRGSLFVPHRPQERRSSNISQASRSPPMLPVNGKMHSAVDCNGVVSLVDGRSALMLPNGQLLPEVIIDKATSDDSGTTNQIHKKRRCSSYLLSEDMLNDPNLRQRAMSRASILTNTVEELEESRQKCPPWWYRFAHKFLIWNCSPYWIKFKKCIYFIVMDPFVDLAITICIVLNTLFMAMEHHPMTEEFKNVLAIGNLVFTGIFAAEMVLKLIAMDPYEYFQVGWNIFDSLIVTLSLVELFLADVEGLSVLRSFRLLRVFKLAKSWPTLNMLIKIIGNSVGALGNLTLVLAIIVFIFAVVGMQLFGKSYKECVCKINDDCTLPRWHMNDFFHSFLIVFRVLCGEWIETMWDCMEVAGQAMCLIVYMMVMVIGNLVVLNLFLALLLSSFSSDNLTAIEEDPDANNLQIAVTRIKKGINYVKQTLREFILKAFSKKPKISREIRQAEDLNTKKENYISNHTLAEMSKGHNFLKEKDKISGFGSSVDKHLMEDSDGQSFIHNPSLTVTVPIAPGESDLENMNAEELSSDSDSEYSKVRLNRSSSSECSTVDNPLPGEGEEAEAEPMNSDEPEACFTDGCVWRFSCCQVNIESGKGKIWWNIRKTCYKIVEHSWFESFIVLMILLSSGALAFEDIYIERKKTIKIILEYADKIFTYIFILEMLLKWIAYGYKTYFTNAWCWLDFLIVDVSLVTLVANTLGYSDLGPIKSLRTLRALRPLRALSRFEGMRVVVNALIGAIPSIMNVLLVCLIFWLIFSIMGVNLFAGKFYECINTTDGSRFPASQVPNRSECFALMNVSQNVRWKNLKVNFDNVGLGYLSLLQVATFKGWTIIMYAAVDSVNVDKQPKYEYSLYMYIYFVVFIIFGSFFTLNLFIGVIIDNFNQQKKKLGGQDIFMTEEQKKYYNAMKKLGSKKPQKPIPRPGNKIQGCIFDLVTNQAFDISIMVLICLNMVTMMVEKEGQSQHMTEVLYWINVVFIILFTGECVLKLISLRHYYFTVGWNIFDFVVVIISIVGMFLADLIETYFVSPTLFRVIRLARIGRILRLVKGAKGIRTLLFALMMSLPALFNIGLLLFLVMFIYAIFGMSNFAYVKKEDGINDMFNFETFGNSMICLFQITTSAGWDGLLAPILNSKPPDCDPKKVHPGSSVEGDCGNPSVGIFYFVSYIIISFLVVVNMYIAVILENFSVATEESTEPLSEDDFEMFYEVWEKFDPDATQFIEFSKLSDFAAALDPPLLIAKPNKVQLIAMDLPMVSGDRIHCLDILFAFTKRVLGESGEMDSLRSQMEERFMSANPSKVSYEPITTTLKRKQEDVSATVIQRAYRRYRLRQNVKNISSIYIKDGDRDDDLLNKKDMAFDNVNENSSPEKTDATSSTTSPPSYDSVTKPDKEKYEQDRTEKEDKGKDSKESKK
Take `CCc1ccc(C(=O)N2CCC3(CC2)C[C@@H](OC(C)C)c2ccccc2O3)cc1OC` [Compound 50]: the IC50 was not above 2000 nM.

As to `COc1cc(C(=O)N2CCC3(CC2)Oc2ccccc2CC3OC(C)C)ccc1OC(C)C` (stereo not drawn) [Compound 51], the 50% inhibitory concentration (IC50) is not above 2000 nM.

For `CC(C)O[C@@H]1CC2(CCN(C(=O)c3ccc(N4CCOCC4)cn3)CC2)Oc2ccc(F)cc21` [Compound 52], the IC50 was not above 2000 nM.

For the molecule `CC(C)O[C@@H]1CC2(CCN(C(=O)c3ccc(SC(C)C)cc3)CC2)Oc2ccc(F)cc21` [Compound 53], the IC50 was not above 2000 nM.

On to `CC(C)O[C@@H]1CC2(CCN(C(=O)c3ccc(N4CCCCC4C)cn3)CC2)Oc2ccc(F)cc21` (stereo partly drawn) [Compound 54], for which the half-maximal inhibitory concentration (IC50) is not above 2000 nM.

With `CC(C)Oc1ccc(C(=O)N2CCC3(CC2)C[C@@H](OC(C)C)c2cc(F)ccc2O3)c(OC(F)F)c1` [Compound 55], the half-maximal inhibitory concentration (IC50) was not above 2000 nM.

For the molecule `CCOCC1CC2(CCN(C(=O)c3ccc(OC(C)C)c(OC)c3)CC2)Oc2ccccc21` (stereo not drawn) [Compound 56], the IC50 was not above 2000 nM.

Regarding `COc1cc(C(=O)N2CCC3(CC2)C[C@@H](OC(C)C)c2ccccc2O3)ccc1C(C)(C)O` [Compound 57], the IC50 is not above 2000 nM.

Turning to `CC(C)O[C@@H]1CC2(CCN(C(=O)c3ccc(S(=O)(=O)CC4CCC4)cn3)CC2)Oc2ccc(F)cc21` [Compound 58], the half-maximal inhibitory concentration (IC50) is not above 2000 nM.

On to `CC(C)O[C@@H]1CC2(CCN(C(=O)c3ccc(S(=O)(=O)C(C)(C)C)cc3)CC2)Oc2ccc(F)cc21` [Compound 59], for which the IC50 was not above 2000 nM.

With `COc1cc(C(=O)N2CCC3(CC2)CC(OC(C)C)c2ccccc2O3)ccc1C(C)(C)C` (stereo not drawn) [Compound 60], the half-inhibitory concentration (IC50) is not above 2000 nM.

As for `CC1CCN(c2ccc(C(=O)N3CCC4(CC3)C[C@@H](OC(C)C)c3cc(F)ccc3O4)nc2)CC1` [Compound 61], the IC50 was not above 2000 nM.

For the molecule `COc1cc(C(=O)N2CCC3(CC2)CC(OC(C)C)c2ccccc2O3)ccc1C(C)(C)CO` (stereo not drawn) [Compound 62], the IC50 was not above 2000 nM.

As for `COc1cc(C(=O)N2CCC3(CC2)CC(COC(F)F)c2ccccc2O3)ccc1OC(C)C` (stereo not drawn) [Compound 63], the IC50 was not above 2000 nM.

Regarding `CC[C@H](C)Nc1ccc(C(=O)N2CCC3(CC2)C[C@@H](OC(C)C)c2cc(F)ccc2O3)nc1` [Compound 64], the IC50 was not above 2000 nM.

Consider `CC(C)O[C@H]1CC2(CCN(C(=O)c3ccc4[nH]ncc4c3)CC2)Oc2ccccc21` [Compound 65], for which the IC50 lay within 2000 to 5000 nM.

For the molecule `CC[C@@H](C)Nc1ccc(C(=O)N2CCC3(CC2)C[C@@H](OC(C)C)c2cc(F)ccc2O3)nc1` [Compound 66], the IC50 is not above 2000 nM.

On to `CC(C)O[C@@H]1CC2(CCN(C(=O)c3ccc(N4CCC[C@@H]4C)cn3)CC2)Oc2ccc(F)cc21` [Compound 67], for which the half-inhibitory concentration (IC50) is not above 2000 nM.

With `CC(C)O[C@@H]1CC2(CCN(C(=O)c3ccc(S(=O)(=O)C(C)C)cc3)CC2)Oc2ccc(F)cc21` [Compound 68], the IC50 is not above 2000 nM.

As for `COc1nc(C)ccc1C(=O)N1CCC2(CC1)C[C@@H](OC(C)C)c1ccccc1O2` [Compound 69], the IC50 is not above 2000 nM.

On to `COc1cc(C(=O)N2CCC3(CC2)C[C@@H](OC(C)C)c2ccccc2O3)ccc1OC(F)F` [Compound 70], for which the IC50 was in the range of 2000 to 5000 nM.

Consider `COc1cc(C(=O)N2CCC3(CC2)C[C@H](OC(C)C)c2ccccc2O3)ccc1C(C)(C)CO` [Compound 71], for which the IC50 is not above 2000 nM.

`Cc1cc(C(=O)N2CCC3(CC2)C[C@@H](OC(C)C)c2ccccc2O3)ccc1OC(C)C` [Compound 72]: the IC50 was not above 2000 nM.

For `CC(C)Oc1ccc(C(=O)N2CCC3(CC2)C[C@@H](OC(C)C)c2ccccc2O3)c(F)c1` [Compound 74], the 50% inhibitory concentration (IC50) was not above 2000 nM.

As for `CC(C)O[C@@H]1CC2(CCN(C(=O)c3ccc(N4CCC[C@H]4C)cn3)CC2)Oc2ccc(F)cc21` [Compound 75], the IC50 was not above 2000 nM.

With `CC(C)Oc1ccc(C(=O)N2CCC3(CC2)CC(OC(C)C)c2ccccc2O3)cc1C#N` (stereo not drawn) [Compound 76], the IC50 is not above 2000 nM.

`Cc1cc(C(=O)N2CCC3(CC2)C[C@H](O)c2cc(F)ccc2O3)ccc1OC(C)C` [Compound 77]: the IC50 was not above 2000 nM.

As for `CC(C)OC1CC2(CCN(C(=O)c3ccc(S(=O)(=O)C(C)C)cc3)CC2)Oc2c(F)cccc21` (stereo not drawn) [Compound 78], the IC50 is not above 2000 nM.

Consider `COc1cc(C(=O)N2CCC3(CC2)C[C@@H](OC(C)C)c2cc(F)ccc2O3)ccc1OC(F)F` [Compound 79], for which the half-maximal inhibitory concentration (IC50) was not above 2000 nM.

Turning to `Cc1nc(C(=O)N2CCC3(CC2)C[C@@H](OC(C)C)c2ccccc2O3)ccc1OC(C)C` [Compound 80], the IC50 was not above 2000 nM.

With `COc1cc(C(=O)N2CCC3(CC2)CC(OC(C)C)c2ccccc2S3(=O)=O)ccc1OC(C)C` (stereo not drawn) [Compound 81], the IC50 was not above 2000 nM.

`CC(C)O[C@@H]1CC2(CCN(C(=O)c3ccc(S(=O)(=O)C4CC4)cc3)CC2)Oc2ccc(F)cc21` [Compound 82]: the IC50 was not above 2000 nM.

For `COc1cc(C(=O)N2CCC3(CC2)CC(CSC)c2ccccc2O3)ccc1OC(C)C` (stereo not drawn) [Compound 83], the IC50 is not above 2000 nM.

In the case of `COc1cc(C(=O)N2CCC3(CC2)CC(OC(C)C)c2cccnc2O3)ccc1OC(C)C` (stereo not drawn) [Compound 84], the half-inhibitory concentration (IC50) was not above 2000 nM.

On to `Cc1cc(S(C)(=O)=O)ccc1C(=O)N1CCC2(CC1)C[C@@H](OC(C)C)c1cc(F)ccc1O2` [Compound 85], for which the IC50 fell in the range of 2000 to 5000 nM.

As for `COc1cc(C(=O)N2CCC3(CC2)CC(OCCS(C)(=O)=O)c2ccccc2O3)ccc1OC(C)C` (stereo not drawn) [Compound 86], the IC50 is more than 5000 nM.

Turning to `Cc1cc(C(F)F)n2ncc(C(=O)N3CCC4(CC3)C[C@@H](OC(C)C)c3ccccc3O4)c2n1` [Compound 87], the half-inhibitory concentration (IC50) was not above 2000 nM.

With `CC(C)OC1CC2(CCN(C(=O)c3ccccc3OC(F)F)CC2)Oc2ccccc21` (stereo not drawn) [Compound 88], the half-maximal inhibitory concentration (IC50) was not above 2000 nM.

On to `Cc1cc(C(=O)N2CCC3(CC2)CC(OC(C)C)c2cnccc2O3)ccc1OC(C)C` (stereo not drawn) [Compound 89], for which the IC50 is 2000 to 5000 nM.

Take `Cc1cc(C(=O)N2CCC3(CC2)CC(OC(C)C)c2cccc(F)c2O3)ccc1S(=O)(=O)C(C)C` (stereo not drawn) [Compound 90]: the half-inhibitory concentration (IC50) was not above 2000 nM.

With `CC(C)Oc1ccc(C(=O)N2CCC3(CC2)C[C@@H](OC(C)C)c2ccccc2O3)cc1O` [Compound 91], the IC50 was not above 2000 nM.

Regarding `Cc1cc(C(=O)N2CCC3(CC2)C[C@@H](OC(C)C)c2cc(F)ccc2O3)ccc1OC1COC1` [Compound 92], the IC50 is not above 2000 nM.

As to `CCC1COCCN1c1ccc(C(=O)N2CCC3(CC2)C[C@@H](OC(C)C)c2cc(F)ccc2O3)nc1` (stereo partly drawn) [Compound 93], the IC50 is not above 2000 nM.

Turning to `COc1cc(C(=O)N2CCC3(CC2)Oc2ccccc2C(OC(C)C)C3C)ccc1OC(C)C` (stereo not drawn) [Compound 94], the concentration for half-maximal inhibition (IC50) is not above 2000 nM.

Take `CC(C)O[C@@H]1CC2(CCN(C(=O)c3ccc(N4CC5CC4CO5)cn3)CC2)Oc2ccc(F)cc21` (stereo partly drawn) [Compound 95]: the IC50 is not above 2000 nM.

`Cc1cc(C(=O)N2CCC3(CCc4ccccc4O3)CC2)ccc1OC(C)C` [Compound 96]: the IC50 was not above 2000 nM.

Regarding `CC(C)O[C@@H]1CC2(CCN(C(=O)c3ccc(N(C)CCN(C)C)cn3)CC2)Oc2ccc(F)cc21` [Compound 97], the IC50 is more than 5000 nM.

Take `COc1cc(C(=O)N2CCC3(CC2)C[C@@H](O)c2cc(F)ccc2O3)ccc1OC(C)C` [Compound 98]: the 50% inhibitory concentration (IC50) was not above 2000 nM.

A word on the IC50: it is the point on the concentration scale where inhibition reaches its midpoint.

Values taken from patent US10385070B2, “Chroman-spirocyclic piperidine amides as modulators of ion channels” (VERTEX PHARMACEUTICALS INCORPORATED, priority 2011, dated 2019).
